Legend:
HaCaT keratinocytes = test: Cell migration assay (in vitro scratch test); format: cell-based, human; conditions: 25 μg/mL, 24 h, serum-free DMEM, Mitomycin C 5 μg/mL, vs. control without peptide, three independent experiments
Experimental: Fibroblasts and keratinocytes were seeded (5x10^5 cells/well) in 6-well plates. When desired monolayer confluence was reached, cells were starved for 24 hours in serum-free DMEM. The monolayer was scratched then with 200μL-pipette tip. The floating cells and cell debris were removed by double washing in PBS, further replaced with a fresh serum-free medium. Wounded monolayers were incubated for the next 24 h in the presence of tested peptides used at concentration of 25 μg/mL and 5 μg/mL of Mitomycin C (Sigma Aldrich) to prevent proliferation. At the end of the experiment medium was removed and the cells were fixed with 3.7% PFA for 5 min, stained for the next 30 min with 0.05% crystal violet solution, washed several times with distilled water and the plates were left inverted for a couple of minutes to drain. The wounded areas were then photographed by means of Zeiss Observer D1 microscope equipped with camera AxioCam and analyzed with AxioVision software (Carl Zeiss, Germany). Migration activity of the cells treated with the tested peptides were expressed as the percentage of the wounded area with respect to the control probe (cell cultures without any of the peptide), assumed as 100%.
An in vitro scratch test was performed to investigate the effect of the analyzed compounds on keratinocytes and fibroblasts migration. Evaluation was based on the efficiency of the invasion of the monolayer cells to the prewounded area within 24 h after stimulation with the appropriate compound added at concetration of 25μg/mL.
Fig 2 Effect of the peptides on HaCaT keratinocytes and fibroblasts cell migration in the in vitro scratch test. HaCaT cells and fibroblasts were grown in 6-well plates until the 100% confluence was reached, then cells were starved for the next 12 hours in DMEM without 10% FCS and scratched once vertically with a 200μL pipette tip. After being washed two times with sterile PBS, a fresh portion of DMEM medium was added and cells were treated with the tested peptides applied at their optimal doses (25 μg/mL). Migration was analyzed after 24 hours by means of Zeiss Observer D1 microscope, wounding areas were analyzed with AxioVision software and expressed as the percentage of the wound width in comparison to the control sample (cells incubated in DMEM without FCS). Control+ FCS corresponds to the sample with cells incubated in the medium containing 10% FCS and was treated as the additional positive control. Data represent the mean ± SD of three independent experiments. *P < 0.05, **P < 0.01, ***P < 0.001 vs. control.

Proteus mirabilis = test: MIC, broth microdilution; format: cell-based; conditions: Mueller-Hinton broth, approximately 10^5 CFU/mL, 37°C, 24 h, absorbance 590 nm, at least triplicate
Experimental: Luria-Bertani broth (LB) and Sabouraud Dextrose broth (SB) (Biocorp, Poland) were used for cultivation of bacteria and fungi strains, respectively. Antimicrobial activity of peptides was analyzed through determination of MIC (minimal inhibitory concentration) parameter according to the standard microdilution technique performed on 96-well plates. Mueller-Hinton broth (MHB) was used as the working medium for all bacterial strains, while in case of fungi it was additionally supplemented with 2% glucose.
Briefly, inoculum was prepared from freshly grown cultures of microorganisms being at their exponential phase of growth. […] Then plates were incubated overnight at 37°C and absorbance was read at 590 nm after 24 h. […]
All peptides were screened against the wide range of microorganisms, including Gram-negative, Gram-positive bacteria and fungi from Candida species (Table 2). […] All assays were performed on liquid Mueller-Hinton broth, which was additionally supplemented with 2% glucose when fungicidal activity towards Candida spps. was analyzed.

| Substance | Effect on keratinocyte migration (scratch test), in words (HaCaT keratinocytes) | MIC P.mirabilis (Proteus mirabilis) |
| --- | --- | --- |
| YAGFLR-PEG-IKKILSKIKKLL-NH2 [DAL-PEG-DK5, conjugate of dalargin and DK5 joined by PEG-linker] | neutral or slightly stimulative |  |
| IKKILSKIKKLL-NH2 [DK5, Lys-rich derivative of amphibian AMP temporin-1CEb, …-NH2, reference compound] |  | NI ^a) |

From article PMC4608580, “Synthesis and Evaluation of Biological Activity of Antimicrobial – Pro-Proliferative Peptide Conjugates” (PLoS ONE, 2015)
